According to PubChem BioAssay (NCI):
Values joined by “and” are separate entries in the source; they are usually repeats but may differ in a detail not shown here. Equal values may be shown once.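 In this assay, cells in 96-well plates receive the compound at five concentrations for 48 hours. Endpoints are linearly interpolated between the surrounding concentrations. The concentration for 50% growth inhibition is given as GI50. TGI: total growth inhibition.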

How the values were obtained:
Experiment in all cases: NCI tumour cell line growth inhibition, 48 h
HCC-2998 colon = system: HCC-2998 colon
MDA-MB-231 breast = system: MDA-MB-231 breast
MALME-3M melanoma = system: MALME-3M melanoma
NCI-H522 lung = system: NCI-H522 lung
SR leukemia = system: SR leukemia
HOP-62 NSCLC = system: HOP-62 NSCLC
MDA-MB-435 = system: MDA-MB-435
OVCAR-5 ovarian = system: OVCAR-5 ovarian
EKVX NSCLC = system: EKVX NSCLC
MCF7 breast = system: MCF7 breast

Cc1cc(=O)oc2c(CN3CCCCC3)c(O)ccc12
TGI (HCC-2998 colon): > 100 µM | TGI (MDA-MB-231 breast): > 100 µM | TGI (MALME-3M melanoma): > 100 µM | TGI (NCI-H522 lung): > 100 µM | TGI (SR leukemia): > 100 µM | TGI (HOP-62 NSCLC): > 100 µM | TGI (MDA-MB-435): > 100 µM | TGI (OVCAR-5 ovarian): > 100 µM | TGI (EKVX NSCLC): > 100 µM | TGI (MCF7 breast): > 100 µM

COc1ccc(C[n+]2c3ccccc3n3c4ccc(N)cc4ccc32)c(OC)c1OC
GI50 (HCC-2998 colon): 4 µM | TGI (HCC-2998 colon): 24.7 µM | GI50 (MDA-MB-231 breast): 9.25 µM | TGI (MDA-MB-231 breast): 31.7 µM | GI50 (MALME-3M melanoma): 2.08 µM | TGI (MALME-3M melanoma): 7.48 µM | GI50 (NCI-H522 lung): 2.08 µM | TGI (NCI-H522 lung): 15.7 µM | GI50 (SR leukemia): 2.75 µM | TGI (SR leukemia): 19.2 µM | GI50 (HOP-62 NSCLC): 7.4 µM | TGI (HOP-62 NSCLC): 33.1 µM | GI50 (MDA-MB-435): 2.92 µM | TGI (MDA-MB-435): 13.5 µM | GI50 (OVCAR-5 ovarian): 12.1 µM | TGI (OVCAR-5 ovarian): 78.5 µM | GI50 (EKVX NSCLC): 3.08 µM | TGI (EKVX NSCLC): 58.9 µM | GI50 (MCF7 breast): 1.11 µM | TGI (MCF7 breast): 26.1 µM

C=C1C(=O)O[C@H]2[C@H]1CC/C(Cn1cc(CNCCc3c[nH]c4ccc(Cl)cc34)nn1)=C\CC[C@@]1(C)O[C@@H]21
GI50 (HCC-2998 colon): 20.3 µM | TGI (HCC-2998 colon): 44.6 µM | GI50 (MDA-MB-231 breast): 4.04 µM | TGI (MDA-MB-231 breast): 16.2 µM | GI50 (MALME-3M melanoma): 2.4 µM | TGI (MALME-3M melanoma): 6.61 µM | GI50 (NCI-H522 lung): 1.58 µM | TGI (NCI-H522 lung): 3.12 µM | GI50 (SR leukemia): 3.01 µM | TGI (SR leukemia): 9.66 µM | GI50 (HOP-62 NSCLC): 67.5 µM | TGI (HOP-62 NSCLC): > 100 µM | GI50 (MDA-MB-435): 6.09 µM | TGI (MDA-MB-435): 21 µM | GI50 (OVCAR-5 ovarian): 11.5 µM | TGI (OVCAR-5 ovarian): 26.7 µM | GI50 (EKVX NSCLC): 15.5 µM | TGI (EKVX NSCLC): 37.4 µM | GI50 (MCF7 breast): 2.59 µM | TGI (MCF7 breast): 11.5 µM

Cc1c(C)c2c(c(C)c1NC(=O)/C=C\C(=O)O)CCC(C)(CCCC(C)CCCC(C)CCCC(C)C)O2 (stereo not given)
GI50 (HCC-2998 colon): 1.91 µM | TGI (HCC-2998 colon): 3.64 µM | GI50 (MDA-MB-231 breast): 1.94 µM | TGI (MDA-MB-231 breast): 3.55 µM | GI50 (MALME-3M melanoma): 1.7 µM | TGI (MALME-3M melanoma): 3.16 µM | GI50 (NCI-H522 lung): 2.23 µM | TGI (NCI-H522 lung): 4.94 µM | GI50 (SR leukemia): 1.61 µM | TGI (SR leukemia): 4.63 µM | GI50 (HOP-62 NSCLC): 1.64 µM | TGI (HOP-62 NSCLC): 3.08 µM | GI50 (MDA-MB-435): 1.67 µM | TGI (MDA-MB-435): 3.44 µM | GI50 (OVCAR-5 ovarian): 1.72 µM | TGI (OVCAR-5 ovarian): 4.05 µM | GI50 (EKVX NSCLC): 1.57 µM | TGI (EKVX NSCLC): 3.37 µM | GI50 (MCF7 breast): 2.2 µM | TGI (MCF7 breast): 5.32 µM

NC(C/[N+]([O-])=N/O)C(=O)O (stereo not given)
TGI (HCC-2998 colon): > 100 µM and 302 µM | TGI (MDA-MB-231 breast): > 500 µM | GI50 (MALME-3M melanoma): 62.1 µM | TGI (MALME-3M melanoma): > 487 µM | GI50 (NCI-H522 lung): 8.03 µM and 33.6 µM | TGI (NCI-H522 lung): > 59.6 µM and 284 µM | TGI (SR leukemia): > 228 µM | GI50 (HOP-62 NSCLC): 19.4 µM and 9.42 µM and 4.9 µM | TGI (HOP-62 NSCLC): > 100 µM and 92.7 µM | GI50 (MDA-MB-435): 11.7 µM and 17.9 µM and 10.6 µM | TGI (MDA-MB-435): > 500 µM | TGI (OVCAR-5 ovarian): > 100 µM and 230 µM | TGI (EKVX NSCLC): > 100 µM and 371 µM | GI50 (MCF7 breast): 1.2 µM and 4.17 µM and 1.15 µM | TGI (MCF7 breast): > 100 µM and 295 µM
